In the supplement of paper PMC13380429:
± gives the standard deviation of the averaged measurements.

Legend:
Settings in all cases: 72 h
U2OS [1] = assay: drug sensitivity score (DSS) for viability; higher = more toxic; extreme values may be limits of the assay
HepG2 [2] = assay: as above
Calu-3 [3] = assay: as above
Vero E6 [4] = assay: as above
Caco-2 [5] = assay: as above
U2OS [6] = assay: relative viability EC50 (midpoint between 100% and the lowest measured viability); higher = less toxic
Vero E6 [7] = assay: as above
Caco-2 [8] = assay: as above
U2OS [9] = assay: cell viability relative to DMSO; higher = less toxic
HepG2 [10] = assay: as above
Calu-3 [11] = assay: as above
Vero E6 [12] = assay: as above
Caco-2 [13] = assay: as above
Calu-3 [14] = assay: relative viability EC50 (midpoint between 100% and the lowest measured viability); higher = less toxic

Row | SMILES | drug sensitivity score (U2OS [1]) | drug sensitivity score (HepG2 [2]) | drug sensitivity score (Calu-3 [3]) | drug sensitivity score (Vero E6 [4]) | drug sensitivity score (Caco-2 [5]) | relative viability EC50 (U2OS [6]) | relative viability EC50 (Vero E6 [7]) | relative viability EC50 (Caco-2 [8]) | cell viability (U2OS [9]; 1 nM) | cell viability (U2OS [9]; 10 nM) | cell viability (U2OS [9]; 100 nM) | cell viability (U2OS [9]; 1000 nM) | cell viability (U2OS [9]; 10000 nM) | cell viability (HepG2 [10]; 1 nM) | cell viability (HepG2 [10]; 10 nM) | cell viability (HepG2 [10]; 100 nM) | cell viability (HepG2 [10]; 1000 nM) | cell viability (HepG2 [10]; 10000 nM) | cell viability (Calu-3 [11]; 1 nM) | cell viability (Calu-3 [11]; 10 nM) | cell viability (Calu-3 [11]; 100 nM) | cell viability (Calu-3 [11]; 1000 nM) | cell viability (Calu-3 [11]; 10000 nM) | cell viability (Vero E6 [12]; 1 nM) | cell viability (Vero E6 [12]; 10 nM) | cell viability (Vero E6 [12]; 100 nM) | cell viability (Vero E6 [12]; 1000 nM) | cell viability (Vero E6 [12]; 10000 nM) | cell viability (Caco-2 [13]; 1 nM) | cell viability (Caco-2 [13]; 10 nM) | cell viability (Caco-2 [13]; 100 nM) | cell viability (Caco-2 [13]; 1000 nM) | cell viability (Caco-2 [13]; 10000 nM) | relative viability EC50 (Calu-3 [14])
1 | CN1CCN(CCCN2c3ccccc3Sc3ccc(C(F)(F)F)cc32)CC1 [trifluoperazine] | 0.4 | 3.5 | 1 | 2.2 | 4.6 | > 10 µM | > 10 µM | > 10 µM | 97.4% | 100% | 101% | 98% | 85.5% | 106% | 89.7% | 98% | 92% | 56.6% | 103% | 99.3% | 102% | 101% | 72.2% | 95.5% | 103% | 105% | 88.7% | 76.2% | 92% | 86.1% | 84.3% | 82.6% | 83% | –
2 | CC1COc2c(N3CCN(C)CC3)c(F)cc3c(=O)c(C(=O)O)cn1c23 (stereo not given) [ofloxacin] | 0 | 0.85 ± 1.2 | 0 | 0 | – | – | – | – | – | – | – | – | – | – | – | – | – | – | – | – | – | – | – | – | – | – | – | – | – | – | – | – | – | –
3 | C[C@@H](N)[C@@H](O)c1ccccc1 [1S,2R-phenylpropanolamine] | – | – | 0 | 0 | 0 | – | > 10 µM | > 10 µM | – | – | – | – | – | – | – | – | – | – | 106% | 106% | 98.8% | 102% | 99.7% | 101% | 101% | 101% | 103% | 97.7% | 98.5% | 107% | 97.4% | 102% | 110% | > 10 µM
4 | Cn1ncnc1[C@H]1c2n[nH]c(=O)c3cc(F)cc(c23)N[C@@H]1c1ccc(F)cc1 [talazoparib] | – | 8.5 | 6.3 | 8.7 | 2.1 | – | – | > 10 µM | – | – | – | – | – | 98.8% | 89.3% | 77.3% | 71.4% | 50.1% | 105% | 84.3% | 93.3% | 68.9% | 58.2% | 95.1% | 97.6% | 77.6% | 66.3% | 54.5% | 105% | 96.3% | 93.7% | 82.7% | 85.9% | –
5 | Oc1ccc(OC2CCCCO2)cc1 (stereo not given) [deoxyarbutin] | – | – | 0 | – | 0 | – | – | > 10 µM | – | – | – | – | – | – | – | – | – | – | 98.1% | 98.2% | 97.4% | 110% | 92.9% | – | – | – | – | – | 89.2% | 99.1% | 99.1% | 97.3% | 104% | > 10 µM
6 | NC(=S)N/N=C/c1ccncc1 [perchlozone] | 0 | – | 0 | 0 | 0 | > 10 µM | > 10 µM | > 10 µM | 102% | 98.4% | 101% | 104% | 106% | – | – | – | – | – | 104% | 100% | 105% | 95.6% | 100% | 93.9% | 98.9% | 93.7% | 99.2% | 108% | 97.2% | 100% | 91.1% | 106% | 92.6% | > 10 µM
7 | C/C=C(/C)C(=O)O[C@H]1C(C)=C[C@]23C(=O)[C@@H](C=C(CO)[C@@H](O)[C@]12O)[C@H]1[C@@H](C[C@H]3C)C1(C)C [ingenol-mebutate] | 0.8 | 12 | 0 | 16.5 | 3.2 | > 10 µM | – | > 10 µM | 101% | 88.5% | 75.2% | 89.1% | 93.4% | 102% | 86.4% | 66.4% | 70.7% | 77.7% | 117% | 110% | 96.6% | 102% | 105% | 99.2% | 83.9% | 54.7% | 53% | 51.7% | 109% | 110% | 89.8% | 81.8% | 84.6% | > 10 µM
8 | CC(=O)O[C@H]1CC[C@@]2(C)C(=CC[C@@H]3[C@@H]2CC[C@]2(C)C(=O)CC[C@@H]32)C1 [prasterone-acetate] | 0 | 0 | 0 | 0 | – | – | – | – | – | – | – | – | – | – | – | – | – | – | – | – | – | – | – | – | – | – | – | – | – | – | – | – | – | –
9 | CC(C)NC[C@@H](C(=O)N1CCN(c2ncnc3c2[C@H](C)C[C@H]3O)CC1)c1ccc(Cl)cc1 [GDC-0068] | 0.3 | 1.3 | 4.3 | 0 | 3 | > 10 µM | > 10 µM | – | 105% | 100% | 101% | 96.8% | 87.2% | 109% | 115% | 108% | 98.9% | 71.4% | 101% | 108% | 89.9% | 80.8% | 56.7% | 105% | 102% | 100% | 101% | 93.2% | 107% | 107% | 96% | 83.2% | 69.1% | –
10 | CN1c2cc3c(cc2N=C(c2ccc(C(=O)O)cc2)c2ccccc21)C(C)(C)CCC3(C)C [LE-135] | 2.5 | 2.4 | 0 | 1.7 | 3.6 | – | > 10 µM | – | 101% | 106% | 100% | 97.8% | 57.2% | 85.1% | 104% | 86.8% | 87.6% | 74% | 108% | 108% | 91.2% | 102% | 98.5% | 99% | 102% | 98.2% | 87.3% | 78.7% | 88.8% | 100% | 101% | 89.7% | 60.1% | > 10 µM
11 | C=C1C[C@@]2(O)O[C@@]3(C[C@H]2C(C)C)[C@@H](C)CC[C@@H]13 [curcumol] | – | – | 0 | 0 | 0 | – | > 10 µM | > 10 µM | – | – | – | – | – | – | – | – | – | – | 96.4% | 107% | 111% | 101% | 106% | 100% | 101% | 97.1% | 91.9% | 102% | 108% | 95.3% | 93.6% | 97.3% | 103% | > 10 µM
12 | CCC(CC)C(c1ccc(Nc2nc3ccccc3s2)cc1)n1cncn1 (stereo not given) [talarozole] | 0 | 1.6 | 0 | 0 | 1.2 | > 10 µM | > 10 µM | – | 104% | 104% | 101% | 102% | 93.3% | 92.3% | 92.5% | 104% | 102% | 63.7% | 100% | 104% | 103% | 109% | 104% | 108% | 101% | 99.3% | 99.1% | 105% | 94.1% | 104% | 96% | 103% | 67.8% | > 10 µM
13 | CNC1CC(N)C(O)C(OC2OC(CO)C(O)C3OC4(OC(C(N)CO)C(O)C(O)C4O)OC23)C1O (stereo not given) [Hygromycin B] | 0 | – | 0 | 0 | 0 | > 10 µM | > 10 µM | > 10 µM | 104% | 97.8% | 99% | 103% | 93.9% | – | – | – | – | – | 95.7% | 93.5% | 92.9% | 97.5% | 89.8% | 95.9% | 93.4% | 95.4% | 91.5% | 104% | 97.2% | 105% | 107% | 108% | 95.9% | > 10 µM
14 | CCN1CCN(C(=O)N[C@@H](C(=O)N[C@@H]2C(=O)N3C(C(=O)O)=C(CSc4nnnn4C)CS[C@H]23)c2ccc(O)cc2)C(=O)C1=O [cefoperazone] | – | – | 0 | 0 | 0 | – | > 10 µM | > 10 µM | – | – | – | – | – | – | – | – | – | – | 89.8% | 101% | 97% | 97.1% | 102% | 96.7% | 104% | 99.5% | 106% | 98.4% | 98.5% | 107% | 102% | 100% | 99.6% | > 10 µM
15 | COC(=O)N[C@H](C(=O)N[C@@H](Cc1ccccc1)[C@@H](O)CN(Cc1ccc(-c2ccccn2)cc1)NC(=O)[C@@H](NC(=O)OC)C(C)(C)C)C(C)(C)C [atazanavir] | 0 | – | 0 | 0 | 2.3 | > 10 µM | > 10 µM | > 10 µM | 111% | 97.1% | 102% | 94% | 99.1% | – | – | – | – | – | 99.3% | 99.7% | 91.4% | 91% | 97.1% | 96.3% | 102% | 90.2% | 99.6% | 112% | 90.5% | 112% | 92.9% | 84.8% | 80.1% | > 10 µM
16 | COC(=O)C1=CCCN(C)C1 [arecoline] | 0 | 0 | 0.6 | – | – | – | – | – | – | – | – | – | – | – | – | – | – | – | – | – | – | – | – | – | – | – | – | – | – | – | – | – | – | –
17 | O=C1c2ccccc2-c2n[nH]c3cccc1c23 [pyrazolanthrone] | – | 3.3 | 0 | 0 | 0 | – | > 10 µM | > 10 µM | – | – | – | – | – | 101% | 80.2% | 96.8% | 82.4% | 71.5% | 94.9% | 95.7% | 92.4% | 100% | 98.6% | 94.7% | 102% | 99.8% | 106% | 105% | 111% | 92.3% | 99.4% | 102% | 97.9% | > 10 µM
18 | CN1CCN(CCOc2cc(OC3CCOCC3)c3c(Nc4c(Cl)ccc5c4OCO5)ncnc3c2)CC1 [saracatinib] | 5.2 | 3.3 | 12 | 8 | 3.8 | 1.09 µM | 1.37 µM | – | 98.6% | 102% | 88.8% | 78.9% | 47.5% | 100% | 101% | 107% | 80.2% | 72.1% | 87.7% | 116% | 95% | 42.3% | 9.6% | 97.5% | 97.1% | 102% | 75.2% | 21% | 107% | 102% | 102% | 84.4% | 63.8% | 0.7 µM
